Experimental data: US20170000784A1, “Autophagy Inhibitors” (priority 2013, published 2017)
Read-outs that look alike come from different tables or passages of the source.

Key:
[1] = tested on: UACC-91 melanoma cell line; assay: Cell viability (IC50) screen, CellTiter Glo, UACC-91; assay type: cell-based; details: Homo sapiens
Protocol: (§1) U2OS cells were seeded at 500 cells per well in 5A McCoy's with 10% FBS in 96-well clear bottom, black-walled tissue culture plates. All melanoma cell lines (A375, UACC-91, UACC-257, UACC-502, UACC-903, UACC-1308, UACC-1940, UACC-2534, and UACC-3291) were seeded at 5,000 cells per well in RPMI 1640 with 10% FBS in 96-well clear bottom, black-walled tissue culture plates. After 24 hour incubation, cells were treated with VATG compounds in triplicate with a 10-point half log dose response from […] for 24 and 48 hours. Medium was removed and 2× CellTiter Glo (Promega, G7571) reagent mixed 1:1 with Opti-MEM (Invitrogen, 31985062) was added at 100 μL per well and incubated at room temperature for 15 minutes while rocking. 75 μL per well was moved to a white-walled 96-well plate and luminescence quantified using the 96 LUM program on an EnVision plate reader (PerkinElmer) and exported for analysis. All triplicate data points were averaged and luminescent readings for each treatment were normalized to vehicle control for change in viability. Dose response curves were input into SigmaPlot for IC50 calculations (Systat Software Inc).

[2] = tested on: UACC-3291 melanoma cell line; assay: Cell viability (IC50) screen, CellTiter Glo, UACC-3291; assay type: cell-based; details: Homo sapiens
Protocol: as §1

[3] = tested on: U2OS cells; assay: Cell viability (IC50) screen, CellTiter Glo, U2OS; assay type: cell-based; details: for IC50: U2OS cell viability, CellTiter Glo, 48 hours
Protocol: as §1

[4] = tested on: nine melanoma cell lines (A375, UACC-91, UACC-257, UACC-502, UACC-903, UACC-1308, UACC-1940, UACC-2534, UACC-3291); assay: Cell viability (IC50) screen, panel of nine melanoma cell lines; assay type: cell-based; details: Homo sapiens, read-out: IC50 values, range over the melanoma cell lines
Protocol: as §1
Next, the sensitivity of each melanoma cell line to CQ, QN, Example 7, and Example 27 was assessed.

[5] = tested on: UACC-903 melanoma cell line; assay: Cell viability (IC50) screen, CellTiter Glo, UACC-903; assay type: cell-based; details: Homo sapiens
Protocol: as §1

[6] = tested on: UACC-2534 melanoma cell line; assay: Cell viability (IC50) screen, CellTiter Glo, UACC-2534; assay type: cell-based; details: Homo sapiens
Protocol: as §1

[7] = tested on: lysosomal protease cathepsin B in U2OS cells; assay: Immunoblot of active cathepsin B; assay type: cell-based; details: 3 μM and 30 μM for 6 hours; effects stated at 30 μM (CQ: at either dose)
Protocol: For Western blotting, U2OS cells were seeded in 10 cm plates in 5A McCoy's with 10% FBS at 1×10^6 cells per plate. All melanoma lines were seeded in 10 cm plates in RPMI 1640 with 10% FBS at 1×10^6 cells per plate. After 24 hours, cells were treated with CQ, QN, Example 27, or Example 7 in a dose response of 0.3 μM, 1 μM, 3 μM, 10 μM, and 30 μM for three hours. A375 were treated with PLX-4032 (Selleck Chemicals, S1267) at 10 nM, 100 nM, and 1 μM for three hours with and without CQ, QN, Example 7, and Example 27 at 3 μM and 30 μM. After treatment, cells were lysed [10 mM KPO4, 1 mM EDTA, 10 mM MgCl2, 5 mM EGTA, 50 mM bis-glycerophosphate, 0.5% NP40, 0.1% Brij35, 0.1% sodium deoxycholate, 1 mM NaVO4, 5 mM NaF, 2 mM DTT, and complete protease inhibitors (Sigma, P8340-5 mL)] and 50 μg of protein was resolved by SDS-PAGE. Proteins were transferred to PVDF membranes and probed with primary antibodies [LC3 (Sigma, L7543-200UL), anti-α-tubulin (Sigma, T6199), cathepsin B (Santa Cruz, sc-13985)] for 16 hours at 4° C. followed by a secondary antibody [HRP-linked rabbit or mouse IgG (GE Healthcare, NA934 or NA931) or Odyssey IRDye 680CW Goat anti-rabbit IgG (LI-COR, 926-32221) or IRDye 800CW Goat anti-mouse IgG (LI-COR, 926-32210)] for 1 hour at room temperature. Proteins were detected with enhanced chemiluminescence or using the Odyssey machine and quantified (FIGS. 12, 15, 16, 7 and 11).
Deacidification of lysosomes would be expected to not only prevent the maturation and turnover of the lysosomes from early to late, but also affect the functionality of lysosomal enzymes and consequently the turnover of lysosomal constituents. To determine if lysosomal activity was inhibited, lysosomal protease cathepsin B activity was measured by immunoblotting (FIG. 12C). Lysates were harvested from cells and treated with CQ, QN, Example 7, and Example 27 at both 3 μM and 30 μM for 6 hours.

[8] = tested on: UACC-502 melanoma cell line; assay: Cell viability (IC50) screen, CellTiter Glo, UACC-502; assay type: cell-based; details: Homo sapiens
Protocol: as §1

[9] = tested on: endogenous LC3 in U2OS cells; assay: Western blot of endogenous LC3 (LC3-II accumulation) in U2OS; assay type: cell-based; details: dose response, three hours, FIG. 11A
Protocol: For Western blotting, U2OS cells were seeded in 10 cm plates in 5A McCoy's with 10% FBS at 1×10^6 cells per plate. […] After treatment, cells were lysed [10 mM KPO4, 1 mM EDTA, 10 mM MgCl2, 5 mM EGTA, 50 mM bis-glycerophosphate, 0.5% NP40, 0.1% Brij35, 0.1% sodium deoxycholate, 1 mM NaVO4, 5 mM NaF, 2 mM DTT, and complete protease inhibitors (Sigma, P8340-5 mL)] and 50 μg of protein was resolved by SDS-PAGE. […] Proteins were detected with enhanced chemiluminescence or using the Odyssey machine and quantified (FIGS. 12, 15, 16, 7 and 11).

[10] = tested on: P. falciparum K1 (CQ resistant); assay: microbe, parasite or virus in culture; assay type: cell-based, Plasmodium falciparum; details: for antimalarial activity score: K1 strain; for IC50: Plasmodium falciparum, K1, Erythrocyte, read-out: Antimalarial activity (IC50) P. falciparum K1 (CQ resistant)
Protocol: In this example, compounds of Formula A, Formula A^1, Formula A^2, Formula A^3 or pharmaceutically acceptable salts thereof, are tested in Plasmodium sp infected cells to determine the effectiveness of these compounds to determine their anti-malarial activity. […] After 24 hours, plates were harvested with a Betaplate™ cell harvester (Wallac, Zurich Switzerland) which transferred the red blood cells onto a glass fiber filter and washed with distilled water. Dried filters were inserted into a plastic foil with 10 mL of scintillation fluid and counted in a Betaplate™ liquid scintillation counter (Wallac, Zurich Switzerland). Results were obtained as counts per minute (cpm) per well at each concentration.

[11] = UACC-91 cell viability, CellTiter Glo, read-out: IC50
[12] = UACC-3291 cell viability, CellTiter Glo, read-out: IC50
[13] = cell viability, nine melanoma cell lines
[14] = UACC-903 cell viability, CellTiter Glo, read-out: IC50
[15] = UACC-2534 cell viability, CellTiter Glo, read-out: IC50
[16] = UACC-502 cell viability, CellTiter Glo, read-out: IC50
[17] = U2OS IC50 relative to quinacrine

In the case of CCN(CC)CCCC(C)Nc1c2ccc(Cl)cc2nc2ccc(OC)cc12 (centres unmarked) [Quinacrine, quinacrine, reference compound], the IC50 [1, 11] is reported as 2900 nM, the IC50 [2, 12] is reported as 2000 nM and the IC50 ([3]; Homo sapiens, U2OS, 48 h, read-out: IC50) is reported as 2500 nM. For the same compound, the IC50 [4, 13] was 1900 to 3900 nM, the IC50 [5, 14] was 2700 nM and the IC50 [6, 15] was 2200 nM. The “active cathepsin B” value [7] was “nearly complete loss” and the IC50 [8, 16] was 2200 nM.

CN1CCN(CCNc2c3c(nc4cc(Cl)ccc24)CCCC3)CC1 [Example 27, 6-Chloro-N-(2-(4-methylpiperazin-1-yl)ethyl)-1,2,3,4-tetrahydroacridin-9-amine] was tested, and the “accumulation of LC3-II” value [9] was “increased accumulation of LC3-II”, the IC50 [1] was 22200 nM and the IC50 [2] was 25300 nM. For the same compound, the antimalarial activity score [10] was “low activity (low activity: IC50 50-1000 ng/mL)”, the IC50 [10] was 131 nM and the “times less cytotoxic than QN” value [3, 17] was 10. For the same compound, the IC50 [3] was 27000 nM, the IC50 [4] was 15000 to 42000 nM and the IC50 ([5]; UACC-903) was 27200 nM. The IC50 [6] was 26600 nM, the “active cathepsin B” value [7] was “significant decrease” and the IC50 [8] was 42300 nM.

In the case of COc1ccc2nc3cc(Cl)ccc3c(NCCCCN3CCN(C)CC3)c2c1 [Example 7, 6-Chloro-2-methoxy-N-(4-(4-methylpiperazin-1-yl)butyl)acridin-9-amine], the “accumulation of LC3-II” value [9] is reported as “increased accumulation of LC3-II”, the IC50 [1, 11] is reported as 500 nM and the IC50 [2, 12] is reported as 800 nM. The antimalarial activity score [10] was “good activity (good activity: IC50<50 ng/mL)”, the IC50 [10] was 23 nM and the “fold more cytotoxic than QN” value [3, 17] was 3.5. The IC50 ([3]; read-out: IC50) was 700 nM, the IC50 [4, 13] was 400 to 2700 nM and the IC50 [5, 14] was 1500 nM. For the same compound, the IC50 [6, 15] was 2700 nM, the “active cathepsin B” value [7] was “nearly complete loss” and the IC50 [8, 16] was 1800 nM.
